Source: ChEMBL document CHEMBL5154819 (Eur J Med Chem, 2022)

Key:
[1] = Toxicity in male Sprague-Dawley rat assessed as decrease in RBC level at 10 mg/kg , iv administered every day for 4 weeks; assay type: organism-based, Erythrocyte; design: scale not given: the % may be the effect or the level left; conditions: in vivo, 672 h
[2] = tested on: Mus musculus; test: Antinociceptive activity in acetic acid induced ICR mouse assessed as inhibition effect at 0.25 mg/kg, iv administered for 15 mins followed by acetic acid injection and measured within 15 mins; assay type: functional; conditions: 0.5 h, time 30 min
[3] = tested on: Mus musculus; test: Analgesic activity in acetic acid induced ICR mouse assessed as average writhing times at 0.50 mg/kg, iv administered for 15 mins followed by acetic acid injection and measured within 15 mins (reference value: 21.1 +/- 16.3); assay type: functional; conditions: dose 0.5 mg/kg, time 30 min
[4] = Plasma protein binding in CD-1 mouse at 600 to 15000 ng/ml measured after 6 hrs by LC-MS/MS analysis; assay type: ADME, cell-free; conditions: dose 600-15000 ng/ml, read-out: PPB
[5] = Drug metabolism in Beagle dog plasma assessed as cis-(R)-2-(4-(((1R,2R)-2-Hydroxycyclopentyl)methyl)phenyl)propanoic acid metabolite formation at 3 mg/kg, iv measured after 2 hrs by UHPLC-MS/MS analysis; assay type: ADME, organism-based, Canis lupus familiaris; conditions: in vivo
[6] = Toxicity in Sprague-Dawley rat assessed as change in RBC level at 10 mg/kg , iv administered every day for 4 weeks and measured after 8 weeks; assay type: organism-based, Erythrocyte; conditions: in vivo, 1344 h
[7] = Solubility of the compound in pre-warmed distilled water at 500 mg measured after 30 mins by HPLC analysis; assay type: physicochemical
[8] = Toxicity in Beagle dog assessed as effect on reticulocytes at 10 mg/kg, iv administered every day for 4 weeks; assay type: organism-based, Canis lupus familiaris; conditions: in vivo, 672 h
[9] = Toxicity in Beagle dog assessed as change in mean corpuscular hemoglobin concentration at 10 mg/kg , iv administered every day for 4 weeks; assay type: organism-based, Canis lupus familiaris; conditions: in vivo, 672 h
[10] = Toxicity in Sprague-Dawley rat assessed as red cell distribution width at 10 mg/kg , iv administered every day for 4 weeks and measured after 8 weeks; assay type: organism-based; conditions: in vivo, 1344 h
[11] = Plasma protein binding in human at 600 to 15000 ng/ml measured after 1 to 8 hrs by LC-MS/MS analysis; assay type: ADME, cell-free; conditions: dose lower 600 ng/ml, time lower 1 hrs, dose upper 15000 ng/ml, time upper 8 hrs, read-out: PPB
[12] = tested on: Mus musculus; test: Antinociceptive activity in acetic acid induced ICR mouse assessed as inhibition effect at 0.50 mg/kg, iv administered for 15 mins followed by acetic acid injection and measured within 15 mins; assay type: functional; conditions: 0.5 h, time 30 min
[13] = Plasma protein binding in cynomolgus monkey at 600 to 15000 ng/ml measured after 6 hrs by LC-MS/MS analysis; assay type: ADME, cell-free, Macaca fascicularis; conditions: dose 600-15000 ng/ml, read-out: PPB
[14] = Toxicity in male Sprague-Dawley rat assessed as decrease in hemoglobin level at 10 mg/kg , iv administered every day for 4 weeks; assay type: organism-based; design: scale not given: the % may be the effect or the level left; conditions: in vivo, 672 h
[15] = Toxicity in Sprague-Dawley rat assessed as change in red cell distribution width at 10 mg/kg , iv administered every day for 4 weeks; assay type: organism-based; conditions: in vivo, 672 h
[16] = Toxicity in female Sprague-Dawley rat assessed as decrease in RBC level at 10 mg/kg , iv administered every day for 4 weeks; assay type: organism-based, Erythrocyte; design: scale not given: the % may be the effect or the level left; conditions: in vivo, 672 h
[17] = Plasma protein binding in Beagle dog at 600 to 15000 ng/ml measured after 6 hrs by LC-MS/MS analysis; assay type: ADME, cell-free, Canis lupus familiaris; conditions: dose 600-15000 ng/ml, read-out: PPB
[18] = Toxicity in Beagle dog assessed as change in RBC level at 10 mg/kg , iv administered every day for 4 weeks; assay type: organism-based, Canis lupus familiaris, Erythrocyte; conditions: in vivo, 672 h
[19] = Drug metabolism in Sprague-Dawley rat plasma assessed as cis-(R)-2-(4-(((1R,2R)-2-Hydroxycyclopentyl)methyl)phenyl)propanoic acid metabolite formation at 3 mg/kg, iv measured after 2 hrs by UHPLC-MS/MS analysis; assay type: ADME, organism-based; conditions: in vivo
[20] = Toxicity in Sprague-Dawley rat assessed as change in hemoglobin level at 10 mg/kg , iv administered every day for 4 weeks and measured after 8 weeks; assay type: organism-based; conditions: in vivo, 1344 h
[21] = organism: Rattus norvegicus; test: Antiinflammatory activity in carrageenan-induced Sprague-Dawley rat assessed as paw withdrawal threshold measured after 2.5 hrs by paw pressure test; assay type: functional
[22] = Toxicity in Sprague-Dawley rat assessed as change in mean corpuscular hemoglobin concentration at 10 mg/kg , iv administered every day for 4 weeks and measured after 8 weeks; assay type: organism-based; conditions: in vivo, 1344 h
[23] = Toxicity in Sprague-Dawley rat assessed as effect on reticulocytes at 10 mg/kg , iv administered every day for 4 weeks and measured after 8 weeks; assay type: organism-based; conditions: in vivo, 1344 h
[24] = tested on: Mus musculus; test: Antinociceptive activity in acetic acid induced ICR mouse assessed as inhibition effect at 1 mg/kg, iv administered for 15 mins followed by acetic acid injection and measured within 15 mins; assay type: functional; conditions: 0.5 h, time 30 min
[25] = tested on: Mus musculus; test: Analgesic activity in acetic acid induced ICR mouse assessed as average writhing times at 0.13 mg/kg, iv administered for 15 mins followed by acetic acid injection and measured within 15 mins (reference value: 21.1 +/- 16.3); assay type: functional; conditions: time 30 min, 0.5 h
[26] = Toxicity in Sprague-Dawley rat assessed as effect on reticulocytes at 10 mg/kg , iv administered every day for 4 weeks; assay type: organism-based; conditions: in vivo, 672 h
[27] = tested on: Mus musculus; test: Antinociceptive activity in acetic acid induced ICR mouse assessed as inhibition effect at 0.13 mg/kg, iv administered for 15 mins followed by acetic acid injection and measured within 15 mins; assay type: functional; conditions: 0.5 h, time 30 min
[28] = Plasma protein binding in Sprague-Dawley rat at 600 to 15000 ng/ml measured after 6 hrs by LC-MS/MS analysis; assay type: ADME, cell-free; conditions: dose 600-15000 ng/ml, read-out: PPB
[29] = Drug metabolism in Sprague-Dawley rat plasma assessed as trans-(R)-2-(4-(((1S,2R)-2-Hydroxycyclopentyl)methyl)phenyl)propanoic acid metabolite formation at 3 mg/kg, iv measured after 2 hrs by UHPLC-MS/MS analysis; assay type: ADME, organism-based; conditions: in vivo
[30] = Toxicity in NZW rabbit assessed as infiltration of inflammatory cells at 10 mg/kg/day, iv administered once daily for 7 days and measured after 3 to 14 days by H and E staining based optical microscopy analysis; assay type: organism-based, Oryctolagus cuniculus; conditions: in vivo, time 3-14 day
[31] = tested on: Mus musculus; test: Analgesic activity in iv dosed ICR mouse assessed as reduction in acetic acid induced writhing administered for 15 mins followed by acetic acid injection and measured within 15 mins; assay type: functional; conditions: 0.5 h, time 30 min
[32] = Toxicity in Sprague-Dawley rat assessed as change in mean corpuscular hemoglobin concentration at 10 mg/kg , iv administered every day for 4 weeks; assay type: organism-based; conditions: in vivo, 672 h
[33] = Toxicity in NZW rabbit assessed as necrosis in endothelial cells at 10 mg/kg/day, iv administered once daily for 7 days and measured after 3 to 14 days by H and E staining based optical microscopy analysis; assay type: organism-based, Oryctolagus cuniculus; conditions: in vivo, time 3-14 day
[34] = Toxicity in Beagle dog assessed as change in hemoglobin level at 10 mg/kg , iv administered every day for 4 weeks; assay type: organism-based, Canis lupus familiaris; conditions: in vivo, 672 h
[35] = Drug metabolism in Sprague-Dawley rat plasma assessed as cis-(R)-2-(4-(((1S,2S)-2-hydroxycyclopentyl)methyl)phenyl)propanoic acid metabolite formation at 3 mg/kg, iv measured after 2 hrs by UHPLC-MS/MS analysis; assay type: ADME, organism-based; conditions: in vivo
[36] = organism: Rattus norvegicus; test: Anti-hyperalgesic activity in carrageenan-induced mechanical hyperalgesia Sprague-Dawley rat model assessed as paw withdrawal threshold measured after 2.5 hrs by paw pressure test; assay type: functional
[37] = Toxicity in female Sprague-Dawley rat assessed as decrease in hemoglobin level at 10 mg/kg , iv administered every day for 4 weeks; assay type: organism-based; design: scale not given: the % may be the effect or the level left; conditions: in vivo, 672 h
[38] = tested on: Mus musculus; test: Analgesic activity in acetic acid induced ICR mouse assessed as average writhing times at 0.25 mg/kg, iv administered for 15 mins followed by acetic acid injection and measured within 15 mins (reference value: 21.1 +/- 16.3); assay type: functional; conditions: time 30 min, 0.5 h
[39] = Toxicity in Beagle dog assessed as change in red cell distribution width at 10 mg/kg , iv administered every day for 4 weeks; assay type: organism-based, Canis lupus familiaris; conditions: in vivo, 672 h
[40] = Drug metabolism in Beagle dog plasma assessed as cis-(R)-2-(4-(((1S,2S)-2-hydroxycyclopentyl)methyl)phenyl)propanoic acid metabolite formation at 3 mg/kg, iv measured after 2 hrs by UHPLC-MS/MS analysis; assay type: ADME, organism-based, Canis lupus familiaris; conditions: in vivo
[41] = tested on: Mus musculus; test: Analgesic activity in acetic acid induced ICR mouse assessed as average writhing times at 1 mg/kg, iv administered for 15 mins followed by acetic acid injection and measured within 15 mins (reference value: 21.1 +/- 16.3); assay type: functional; conditions: time 30 min, 0.5 h
[42] = Drug metabolism in Beagle dog plasma assessed as trans-(R)-2-(4-(((1S,2R)-2-Hydroxycyclopentyl)methyl)phenyl)propanoic acid metabolite formation at 3 mg/kg, iv measured after 2 hrs by UHPLC-MS/MS analysis; assay type: ADME, organism-based, Canis lupus familiaris; conditions: in vivo
[43] = Drug metabolism in Sprague-Dawley rat plasma assessed as trans-(S)-2-(4-(((1S,2R)-2-Hydroxycyclopentyl)methyl)phenyl)propanoic acid metabolite formation at 3 mg/kg, iv measured after 2 hrs by UHPLC-MS/MS analysis; assay type: ADME, organism-based; conditions: in vivo

## C[C@H](C(=O)O)c1ccc(C[C@H]2CCC[C@@H]2O)cc1.NC(CO)(CO)CO
[1]
  Activity: < 10%
[2]
  inhibition in vivo at 0.25 mg/kg: 39.3%
[3]
  Activity: 7.7
[4]
  fraction unbound at 6 h: < 0.3
[5]
  Drug metabolism: Metabolite_Notdetected
[6]
  Activity: Non-Toxic
[7]
  solubility at 0.5 h: 176 mg/mL
[8]
  Activity: Non-Toxic
[9]
  Activity: Non-Toxic
[10]
  Activity: Non-Toxic
[11]
  fraction unbound: < 0.05
[12]
  inhibition in vivo at 0.5 mg/kg: 63.5%
[13]
  fraction unbound at 6 h: < 0.3
[14]
  Activity: < 10%
[15]
  Activity: Non-Toxic
[16]
  Activity: < 10%
[17]
  fraction unbound at 6 h: < 0.3
[18]
  Activity: Non-Toxic
[19]
  Drug metabolism: Metabolite_Notdetected
[20]
  Activity: Non-Toxic
[21]
  ED50: 8.01 mg/kg
[22]
  Activity: Non-Toxic
[23]
  Activity: Non-Toxic
[24]
  inhibition in vivo at 1 mg/kg: 68.2%
[25]
  Activity: 19
[26]
  Activity: Non-Toxic
[27]
  inhibition in vivo at 0.13 mg/kg: 10%
[28]
  fraction unbound at 6 h: < 0.3
[29]
  Drug metabolism: Metabolite_Notdetected
[30]
  Activity: Non-Toxic
[31]
  ED50: 0.43 mg/kg
[32]
  Activity: Non-Toxic
[33]
  Activity: Non-Toxic
[34]
  Activity: Non-Toxic
[35]
  Drug metabolism: Metabolite_Notdetected
[36]
  ED50: 1.28 mg/kg
[37]
  Activity: < 10%
[38]
  Activity: 12.8
[39]
  Activity: Non-Toxic
[40]
  Drug metabolism: Metabolite_Notdetected
[41]
  Activity: 6.7
[42]
  Drug metabolism: Metabolite_Notdetected
[43]
  Drug metabolism: Metabolite_Notdetected
